Here are results for 47 compounds from US20230279020A9, “CARM1 INHIBITORS AND USES THEREOF” (Epizyme, Inc., priority 2013, published 2023).

The target of this test is Human CARM1 (PRMT4) (Homo sapiens (Human), UniProt Q86X55). In words: CARM1 enzyme assay on peptide substrate (3H-SAM Flashplate). As to conditions: Biochemical potencies, classification codes; read-out: Biochem IC50. The text has this: S-adenosylmethionine (SAM), S-adenosylhomocysteine (SAH), bicine, Tween20, dimethylsulfoxide (DMSO), bovine skin gelatin (BSG), sodium butyrate and Tris(2-carboxyethyl)phosphine hydrochloride solution (TCEP) were purchased from Sigma-Aldrich at the highest level of purity possible. ^3H-SAM was purchase from American Radiolabeled Chemicals with a specific activity of 80 Ci/mmol. 384-well streptavidin Flashplates were purchased from PerkinElmer.
Sequence of Human CARM1 (PRMT4) (Q86X55 other isoform, or with tags, fused parts or gaps isoform Q86X55-1): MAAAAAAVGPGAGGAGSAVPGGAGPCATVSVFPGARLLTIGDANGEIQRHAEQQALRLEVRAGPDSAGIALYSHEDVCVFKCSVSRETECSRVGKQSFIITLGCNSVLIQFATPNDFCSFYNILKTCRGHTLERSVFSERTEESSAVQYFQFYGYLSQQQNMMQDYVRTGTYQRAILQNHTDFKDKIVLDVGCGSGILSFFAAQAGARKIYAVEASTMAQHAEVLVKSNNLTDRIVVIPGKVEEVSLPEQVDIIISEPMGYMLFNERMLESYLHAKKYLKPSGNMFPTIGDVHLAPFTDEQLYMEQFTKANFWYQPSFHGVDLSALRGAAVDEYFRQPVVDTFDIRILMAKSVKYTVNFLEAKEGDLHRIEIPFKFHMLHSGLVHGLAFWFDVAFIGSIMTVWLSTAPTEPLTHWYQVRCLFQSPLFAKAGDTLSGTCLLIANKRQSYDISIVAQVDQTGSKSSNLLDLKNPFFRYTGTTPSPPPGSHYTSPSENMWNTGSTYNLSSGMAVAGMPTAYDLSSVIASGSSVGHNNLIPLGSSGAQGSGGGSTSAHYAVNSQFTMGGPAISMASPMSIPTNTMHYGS
Peptide representative of human histone H3 residues 16-30 was synthesized with an N-terminal linker-affinity tag motif and a C-terminal amide cap by 21st Century Biochemicals. […] The sequence was Biot-Ahx-[…]-amide and contained a monomethylated arginine at position 26 (SEQ ID NO.:1).
The gene sequence encoding isoform1 containing a deletion of amino acids 539-561 was amplified subsequently and subcloned into pFastBacMam (Viva Biotech).
Recombinant baculovirus were generated according to Bac-to-Bac kit instructions (Life Technologies). Protein over-expression was accomplished by infecting exponentially growing HEK 293F cell culture at 1.3×10^6cell/ml with virus (MOI=10) in the presence of 8 mM sodium butyrate. Infections were carried out at 37° C. for 48 hours, harvested by centrifugation, and stored at −80° C. for purification.
Expressed full-length human Flag- and His-tagged CARM1 protein was purified from cell paste by anti-flag M2 affinity chromatography with resin equilibrated with buffer containing 20 mM Tris, 150 mM NaCl, 5% glycerol, pH 7.8. Column was washed with 500 mM NaCl in buffer A and Flag-CARM1-His was eluted with 200 ug/ml FLAG peptide in buffer A. Pooled fractions were dialyzed in 20 mM Tris, 150 mM NaCl, 5% glycerol and 1 mM DTT, pH 7.8.
The assays were all performed in a buffer consisting of 20 mM Bicine (pH=7.6), 1 mM TCEP, 0.005% BSG, and 0.002% Tween 20, prepared on the day of use. Compounds in 100% DMSO (1 ul) were spotted into a polypropylene 384-well V-bottom plates (Greiner) using a Platemate Plus outfitted with a 384-channel head (Thermo Scientific). DMSO (1 ul) was added to Columns 11, 12, 23, 24, rows A-H for the maximum signal control and 1 ul of SAH, a known product and inhibitor of CARM1, was added to columns 11, 12, 23, 24, rows I-P for the minimum signal control. A cocktail (40 ul) containing the CARM1 enzyme was added by Multidrop Combi (Thermo-Fisher). The compounds were allowed to incubate with CARM1 for 30 min at room temperature, then a cocktail (10 ul) containing ^3H-SAM and peptide was added to initiate the reaction (final volume=51 ul). The final concentrations of the components were as follows: CARM1 was 0.25 nM, ^3H-SAM was 30 nM, peptide was 250 nM, SAH in the minimum signal control wells was 1 mM, and the DMSO concentration was 2%. The assays were stopped by the addition of non-radiolabeled SAM (10 ul) to a final concentration of 300 uM, which dilutes the ^3H-SAM to a level where its incorporation into the peptide substrate is no longer detectable. 50 ul of the reaction in the 384-well polypropylene plate was then transferred to a 384-well Flashplate and the biotinylated peptides were allowed to bind to the streptavidin surface for at least 1 hour before being washed once with 0.1% Tween20 in a Biotek ELx405 plate washer. The plates were then read in a PerkinElmer TopCount plate reader to measure the quantity of ^3H-labeled peptide bound to the Flashplate surface, measured as disintegrations per minute (dpm) or alternatively, referred to as counts per minute (cpm).
where dpm=disintegrations per minute, cmpd=signal in assay well, and min and max are the respective minimum and maximum signal controls.
where top and bottom are the normally allowed to float, but may be fixed at 100 or 0 respectively in a 3-parameter fit. The Hill Coefficient normally allowed to float but may also be fixed at 1 in a 3-parameter fit. Y is the % inhibition and X is the compound concentration.
As for `CNC[C@@H](O)COc1ccc(Cl)c(-c2nc(N[C@H]3CCN(C4CC4)[C@@H](C)C3)c(C)c(-c3c(C)noc3C)n2)c1` [Example 170-3], the IC50 is < 100 nM. Regarding `CNCC(O)COc1cccc(-c2nc(-c3c(C)noc3C)cc(N3CCN(C4CC4)CC3)n2)c1` (centres unmarked) [Example 30-1a], the half-inhibitory concentration (IC50) was < 100 nM. Regarding `CNCC(O)COc1cccc(-c2nc(NC3CCCN(S(C)(=O)=O)C3)c(C)c(-c3c(C)noc3C)n2)c1` (centres unmarked) [Example 198-1a], the 50% inhibitory concentration (IC50) is < 100 nM. As for `CNC[C@@H](O)COc1ccc(Cl)c(-c2nc(NC3CC(COC)C3)c(C)c(-c3c(C)noc3C)n2)c1` (some centres unmarked) [Example 219-3], the figure is < 100 nM; as for `CNCC(O)COc1cccc(-c2nc(NC3(CO)CC3)c(C)c(-c3c(C)noc3C)n2)c1` (centres unmarked) [Example 5-3], < 100 nM.

Take `CNCC(O)COc1cccc(-c2nc(N3CCN(C(=O)OC)[C@@H](C)C3)cc(N(C)C3CCOCC3)n2)c1` (some centres unmarked) [Example 581-1a]: the half-inhibitory concentration (IC50) is < 100 nM.

As for `CNC[C@@H](O)COc1cccc(-c2nc(NC3CCN(C(=O)OC)CC3)cc(-c3c(C)nnn3C)n2)c1` [Example 278-3], the IC50 is < 100 nM.

As to `CNCC(O)COc1cccc(-c2nc(NC3C[C@@H](O)[C@H](O)C3)c(C)c(-c3c(C)noc3C)n2)c1` (some centres unmarked) [Example 280-1a], the IC50 was < 100 nM.

Turning to `CCOC(=O)N1CCC[C@H]1CCNc1nc(-c2cc(OC[C@H](O)CNC)ccc2Cl)nc(-c2c(C)noc2C)c1C` [Example 137-3], the IC50 is < 100 nM. Then `CNCC(O)COc1cccc(-c2nc(N[C@@H]3CCNC3)c(C)c(-c3c(C)noc3C)n2)c1` (some centres unmarked) [Example 307-1a], with < 100 nM; and `CC[C@H]1CN(c2nc(-c3cccc(OCC(O)CNC)c3)nc(-c3c(C)noc3C)c2C)CCN1C1CC1` (some centres unmarked) [Example 178-1a], with < 100 nM; and `CNC[C@H](O)COc1ccc(Cl)c(-c2nc(-c3c(C)noc3C)c(C)c(N3Cc4cc(F)cnc4C3)n2)c1` [Example 86-3], with < 100 nM. As for `CNCC(O)COc1cccc(-c2nc(N[C@@H]3CCOC3)c(C)c(N3CC[C@@H](N(C)C)C3)n2)c1` (some centres unmarked) [Example 392-1a], the figure is < 100 nM; as for `CNCC(O)COc1cccc(-c2nc(NC[C@H]3COCCN3CC(F)F)c(C)c(-c3c(C)noc3C)n2)c1` (some centres unmarked) [Example 274-1a], < 100 nM. As for `CNCC(O)COc1ccc(Cl)c(-c2nc(NC3CCN(C(=O)OC)CC3)c(C)c(-c3c(C)noc3C)n2)c1` (centres unmarked) [Example 270-1a], the figure is < 100 nM; as for `CNCC(O)COc1cccc(-c2nc(-c3sc(C)nc3C)cc(N(C)C3CCOCC3)n2)c1` (centres unmarked) [Example 569-1a], < 100 nM; as for `CNCC(O)COc1cccc(-c2nc(N[C@@H]3CCNC[C@@H]3F)c(C)c(-c3c(C)noc3C)n2)c1` (some centres unmarked) [Example 224-1a], < 100 nM. As for `CNCC(O)COc1cccc(-c2nc(NCCOC)cc(-c3cc4ccccc4o3)n2)c1` (centres unmarked) [Example 29-1], the half-inhibitory concentration (IC50) was < 100 nM. Then `CNCC(O)COc1ccc(Cl)c(-c2nc(NC[C@H]3CCCO3)c(C)c(-c3c(C)noc3C)n2)c1` (some centres unmarked) [Example 6-3], with < 100 nM; and `CNCC(O)COc1cccc(-c2nc(NC3CCS(=O)(=O)CC3)cc(-c3c(C)noc3C)n2)c1` (centres unmarked) [Example 60-1a], with < 100 nM. On to `CNCC(O)COc1cccc(-c2nc(NC3CCOC3)c(C)c(N3CCN(CC(F)F)C(C)(C)C3)n2)c1` (centres unmarked) [Example 457-1a], for which the 50% inhibitory concentration (IC50) was < 100 nM. In the case of `CNCC(O)COc1cccc(-c2nc(-c3c(C)noc3C)cc(N3CCN(CCF)[C@@H](C)C3)n2)c1` (some centres unmarked) [Example 103-1a], the IC50 was < 100 nM. Turning to `CNCC(O)COc1cccc(-c2nc(NC[C@H]3COCCN3C(=O)N(C)C)c(C)c(-c3c(C)noc3C)n2)c1` (some centres unmarked) [Example 258-1a], the IC50 is < 100 nM. Consider `CNC[C@@H](O)COc1ccc(Cl)c(-c2nc(N[C@@H]3CO[C@@H](C)C3)c(Cl)c(-c3c(C)noc3C)n2)c1` [Example 181-3], for which the IC50 was < 100 nM. On to `CCS(=O)(=O)N1CCC(Nc2nc(-c3cccc(OCC(O)CNC)c3)nc(-c3c(C)noc3C)c2C)CC1` (centres unmarked) [Example 168-1a], for which the IC50 was < 100 nM.

For `CNC[C@@H](O)COc1ccc(C(F)(F)F)c(-c2nc(NC3CCOCC3)c(C)c(-c3c(C)noc3C)n2)c1` [Example 200-3], the IC50 was < 100 nM.

Take `CNCC(O)COc1cccc(-c2nc(OCC3CCOCC3)c(C)c(-c3c(C)noc3C)n2)c1` (centres unmarked) [Example 182-1a]: the IC50 is < 100 nM. Turning to `CNCC(O)COc1ccc(Cl)c(-c2nc(NC3CC(O)(C(F)(F)F)C3)c(C)c(-c3c(C)noc3C)n2)c1` (centres unmarked) [Example 38-3], the half-maximal inhibitory concentration (IC50) is < 100 nM.

Take `CCOC(=O)N1CCOC[C@@H]1CNc1nc(-c2cc(OCC(O)CNC)ccc2Cl)nc(-c2c(C)nsc2C)c1C` (some centres unmarked) [Example 93-3]: the concentration for half-maximal inhibition (IC50) was < 100 nM.

For the compound `CNC[C@H](O)COc1ccc(Cl)c(-c2nc(-c3c(C)noc3C)c(C)c(N3Cc4cc(Cl)cnc4C3)n2)c1` [Example 87-3], the half-maximal inhibitory concentration (IC50) was < 100 nM.

As to `CCN1CCC[C@H]1CNc1nc(-c2cc(OC[C@@H](O)CNC)ccc2Cl)nc(-c2c(C)noc2C)c1C` [Example 48-3], the IC50 is < 100 nM.

For the compound `C=C(C)c1cc(N(C)C2CCOCC2)nc(-c2cc(Cl)cc(OCC(O)CNC)c2)n1` (centres unmarked) [Example 619-1a], the IC50 was < 100 nM.

Take `CNCC(O)COc1cccc(-c2nc(N[C@@H]3CCOC3)c(C)c(-c3cnc4[nH]ccc4c3)n2)c1` (some centres unmarked) [Example 355-1a]: the IC50 is < 100 nM.

In the case of `CNCC(O)COc1cccc(-c2nc(N[C@@H]3CCOC3)c(C)c(N3CCNCC3)n2)c1` (some centres unmarked) [Example 422-1a], the concentration for half-maximal inhibition (IC50) is < 100 nM. In the case of `CNC[C@@H](O)COc1ccc(Cl)c(-c2nc(NC3CCN(C)CC3(F)F)c(C)c(-c3c(C)noc3C)n2)c1` (some centres unmarked) [Example 258-3], the 50% inhibitory concentration (IC50) was < 100 nM. As for `CCC1(CNc2nc(-c3cccc(OCC(O)CNC)c3)nc(-c3c(C)noc3C)c2C)CCOCC1` (centres unmarked) [Example 141-1a], the figure is < 100 nM. Then `CNCC(O)COc1cc(Cl)cc(-c2nc(N[C@@H]3CCOC3)cc(-c3c(C)noc3C)n2)c1` (some centres unmarked) [Example 10-1a], with < 100 nM. Then `CNC[C@@H](O)COc1ccc(Cl)c(-c2nc(NC[C@H]3COCCN3C(=O)OC(C)C)c(C)c(-c3c(C)noc3C)n2)c1` [Example 134-3], with < 100 nM; and `CNC[C@H](O)COc1cccc(-c2nc(-c3cnc4cnccn34)cc(N(C)C3CCOCC3)n2)c1` [Example 486-1a], with < 100 nM; and `CNCC(O)COc1cccc(-c2nc(-c3c(C)noc3C)cc(N(C)c3cnc(OC)nc3)n2)c1` (centres unmarked) [Example 51-1a], with < 100 nM. For the compound `CNC[C@@H](O)COc1ccc(Cl)c(-c2nc(-c3c(C)noc3C)c(C)c(N3CC4(CCN(C(=O)OC(C)C)CC4)C3)n2)c1` [Example 284-3], the IC50 was < 100 nM. As for `CNCC(O)COc1cc(Cl)cc(-c2nc(-c3ccncc3)c(Br)c(N(C)C3CCOCC3)n2)c1` (centres unmarked) [Example 611-1a], the half-maximal inhibitory concentration (IC50) is < 100 nM. For `CNCC(O)COc1cccc(-c2nc(N[C@@H]3CCN(C4CC4)C[C@H]3F)c(C)c(-c3c(C)noc3C)n2)c1` (some centres unmarked) [Example 261-1a], the IC50 is < 100 nM. With `CNCC(O)COc1ccc(C)c(-c2nc(NC3CCOC(C)C3)c(C)c(-c3c(C)noc3C)n2)c1` (centres unmarked) [Example 124-3], the half-inhibitory concentration (IC50) was < 100 nM. Then `CNC[C@@H](O)COc1cccc(-c2nc(-c3c[nH]c4ncncc34)cc(N(C)C3CCOCC3)n2)c1` [Example 571-1a], with < 100 nM. In the case of `CNCC(O)COc1cccc(-c2nc(OCC3CCNCC3)c(C)c(-c3c(C)noc3C)n2)c1` (centres unmarked) [Example 289-1a], the half-inhibitory concentration (IC50) is < 100 nM. As for `CNCC(O)COc1cccc(-c2nc(N3CCC[C@H](O)C3)cc(N(C)C3CCOCC3)n2)c1` (some centres unmarked) [Example 538-1a], the figure is < 100 nM.
